According to the supplement of paper PMC11208160:

Assay: recombinant barcode read abundance after kanamycin selection (control-corrected) (log10(CPM+1)); higher = more efficient recombination; sequences stand for … in AGTGCAGAGAAAATCGGCCAGTTTTCTCTGCCTGCAGTCCGCATGCCGT…AGATTTATGCAGCGGACTGCCTTTCTCCCAAAGTGATAAACCGGACAGTATCATGGACCGGTTTTCCCGGTAATCCGTATTTGCAAGGTTGGTTTCACT; site = the 11-nt target
How it was run: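 Pooled E. coli screen pairing targets with IS621 bridge RNA target-binding loops. Each oligo (promoter, target, barcode, J23119-driven first 104 bridge RNA bases) was Gibson-cloned into a vector with the remaining 73 bp and T7-inducible recombinase, then co-electroporated with a donor plasmid. Two replicates each were plated on chloramphenicol/ampicillin LB agar (control) or chloramphenicol/ampicillin/kanamycin with 0.1 mM IPTG. Recombination efficiency is recombinant-junction barcode counts as CPM, averaged, control-corrected, reported as log10(CPM+1).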
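Further: IS621 recombinase and bridge RNA in Escherichia coli cells.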

Sequence | recombinant barcode read abundance (log10)
ATTTCTACTTGGGTTCTAACCTGTTGCGA (site ATTTCTACTTC) | 0.194
ATTTCTACTTGGGTTCTAACCTGTTGCGA (site GTTTCTACTTA) | 0.102
ATTTGGACTTGGGTTCTAACCTGTTGCCT (site ATTTGAACTAG) | 0.173
ATTTGGACTTGGGTTCTAACCTGTTGCCT (site ATTTGCACTAG) | 0.0773
ATTTGGACTTGGGTTCTAACCTGTTGCCT (site ATTTGGACTAG) | 0.111
ATTTGGACTTGGGTTCTAACCTGTTGCCT (site ATTTGTACTAG) | 0.0943
CAAAAGGCTTGGGTTCTAACCTGTTGCCT (site ATCGTACCTTA) | 0.469
CAAAAGGCTTGGGTTCTAACCTGTTGCCT (site CAAAAGGCTAG) | 0.0565
CAAACAACTTGGGTTCTAACCTGTTGCCT (site CAAACAACTAG) | 0.235
CAAACAACTTGGGTTCTAACCTGTTGCCT (site CAAACACCTAG) | 0.188
CAAACAACTTGGGTTCTAACCTGTTGCCT (site CAAACAGCTAG) | 0.101
CAAACAACTTGGGTTCTAACCTGTTGCCT (site CAAACATCTAG) | 0.133
CAAACTACTTGGGTTCTAACCTGTTGCTA (site CAAACTACTGT) | 0.011
CAAACTACTTGGGTTCTAACCTGTTGCTA (site CAAACTACTTA) | 0.386
CAAACTCCTTGGGTTCTAACCTGTTGCAT (site CAAACTCCTAA) | 0.116
CAAACTCCTTGGGTTCTAACCTGTTGCAT (site CAAACTCCTAC) | 0.0268
CAAACTCCTTGGGTTCTAACCTGTTGCAT (site CAAACTCCTAG) | 0.0257
CAAACTCCTTGGGTTCTAACCTGTTGCAT (site CAAACTCCTAT) | 0.713
CAAACTCCTTGGGTTCTAACCTGTTGCCT (site CAAACTCCTAA) | 0.137
CAAACTCCTTGGGTTCTAACCTGTTGCCT (site CAAACTCCTAC) | 0.0217
CAAACTCCTTGGGTTCTAACCTGTTGCCT (site CAAACTCCTAG) | 0.238
CAAACTCCTTGGGTTCTAACCTGTTGCCT (site CAAACTCCTAT) | 0.067

Sequence | recombinant barcode read abundance (log10)
CAAACTCCTTGGGTTCTAACCTGTTGCTT (site CAAACTCCTAA) | 0.191
CAAACTCCTTGGGTTCTAACCTGTTGCTT (site CAAACTCCTAC) | 0.0428
CAAACTCCTTGGGTTCTAACCTGTTGCTT (site CAAACTCCTAG) | 0.221
CAAACTCCTTGGGTTCTAACCTGTTGCTT (site CAAACTCCTAT) | 0.0809
CAAAGACCTTGGGTTCTAACCTGTTGCGG (site AAAATACCTCC) | 0.14
CAAAGACCTTGGGTTCTAACCTGTTGCGG (site CAAAGACCTCC) | 2.06
CAAAGATCTTGGGTTCTAACCTGTTGCTT (site CAAAGATCTAA) | 1.03
CAAAGATCTTGGGTTCTAACCTGTTGCTT (site CACAGATCTAA) | 0.046
CAAAGATCTTGGGTTCTAACCTGTTGCTT (site CAGAGATCTAA) | 0.0421
CAAAGATCTTGGGTTCTAACCTGTTGCTT (site CATAGATCTAA) | 0.108
CAAAGGCCTTGGGTTCTAACCTGTTGCCT (site CAAAGGCCTAG) | 0.173
CAAAGGCCTTGGGTTCTAACCTGTTGCCT (site CAACGGCCTAG) | 0.0335
CAAAGGCCTTGGGTTCTAACCTGTTGCCT (site CAAGGGCCTAG) | 0.228
CAAAGGCCTTGGGTTCTAACCTGTTGCCT (site CAATGGCCTAG) | 0.157
CAAAGGTCTTGGGTTCTAACCTGTTGCTA (site CAAAGGTCTTA) | 1.39
CAAAGGTCTTGGGTTCTAACCTGTTGCTA (site TAAAGGCCTTA) | 0.0182
CAAAGTGCTTGGGTTCTAACCTGTTGCCT (site CAAAGTGCTAG) | 0.517
CAAAGTGCTTGGGTTCTAACCTGTTGCCT (site GAAAGTGCTAG) | 0.205
CAAATGTCTTGGGTTCTAACCTGTTGCCT (site AAAATGCCTAG) | 0.299
CAAATGTCTTGGGTTCTAACCTGTTGCCT (site CAAATGTCTAG) | 1.1
CAACACCCTTGGGTTCTAACCTGTTGCAT (site CAACACCCTAT) | 2.33
CAACACCCTTGGGTTCTAACCTGTTGCAT (site GTTTCAACTTG) | 0.157

Sequence | recombinant barcode read abundance (log10)
CAACCACCTTGGGTTCTAACCTGTTGCTT (site CAAACACCTAA) | 0.142
CAACCACCTTGGGTTCTAACCTGTTGCTT (site CAACCACCTAA) | 1.41
CAACCACCTTGGGTTCTAACCTGTTGCTT (site CAAGCACCTAA) | 0.0953
CAACCACCTTGGGTTCTAACCTGTTGCTT (site CAATCACCTAA) | 0.159
CAAGTACCTTGGGTTCTAACCTGTTGCCT (site AAAGTACCTAG) | 0.343
CAAGTACCTTGGGTTCTAACCTGTTGCCT (site CAAGTACCTAG) | 0.688
CAAGTACCTTGGGTTCTAACCTGTTGCCT (site GAAGTACCTAG) | 0.185
CAAGTACCTTGGGTTCTAACCTGTTGCCT (site TAAGTACCTAG) | 0.22
CAAGTTGCTTGGGTTCTAACCTGTTGCCT (site CAAGTAGCTAG) | 0.14
CAAGTTGCTTGGGTTCTAACCTGTTGCCT (site CAAGTCGCTAG) | 0.305
CAAGTTGCTTGGGTTCTAACCTGTTGCCT (site CAAGTGGCTAG) | 0.227
CAAGTTGCTTGGGTTCTAACCTGTTGCCT (site CAAGTTGCTAG) | 1.43
CAATGGGCTTGGGTTCTAACCTGTTGCCG (site CAATGGGCTCG) | 0.961
CAATGGGCTTGGGTTCTAACCTGTTGCCG (site CGATGGACTCG) | 0.179
CAATGGTCTTGGGTTCTAACCTGTTGCCT (site CAATGGTCTAA) | 0.376
CAATGGTCTTGGGTTCTAACCTGTTGCCT (site CAATGGTCTAC) | 0.0107
CAATGGTCTTGGGTTCTAACCTGTTGCCT (site CAATGGTCTAG) | 1.54
CAATGGTCTTGGGTTCTAACCTGTTGCCT (site CAATGGTCTAT) | 0.939
CAATGGTCTTGGGTTCTAACCTGTTGCGT (site CAATGGTCTAA) | 0.583
CAATGGTCTTGGGTTCTAACCTGTTGCGT (site CAATGGTCTAC) | 3.06
CAATGGTCTTGGGTTCTAACCTGTTGCGT (site CAATGGTCTAG) | 0.638
CAATGGTCTTGGGTTCTAACCTGTTGCGT (site CAATGGTCTAT) | 2.16

Sequence | recombinant barcode read abundance (log10)
CACAATCCTTGGGTTCTAACCTGTTGCGT (site CACAATCCTAC) | 1.76
CACAATCCTTGGGTTCTAACCTGTTGCGT (site CACACACCTAC) | 0.0965
CACACGACTTGGGTTCTAACCTGTTGCCT (site CACACGACTAG) | 0.99
CACACGACTTGGGTTCTAACCTGTTGCCT (site CACACGTCTAG) | 0.109
CACACGTCTTGGGTTCTAACCTGTTGCCT (site CACACGACTAG) | 0.103
CACACGTCTTGGGTTCTAACCTGTTGCCT (site CACACGTCTAG) | 1.24
CACACTACTTGGGTTCTAACCTGTTGCTG (site CACACTACTCA) | 0.818
CACACTACTTGGGTTCTAACCTGTTGCTG (site GGTGAGCCTAC) | 0.24
CACAGACCTTGGGTTCTAACCTGTTGCCT (site AACAGACCTAG) | 0.00929
CACAGACCTTGGGTTCTAACCTGTTGCCT (site CACAGACCTAG) | 1.47
CACAGACCTTGGGTTCTAACCTGTTGCCT (site GACAGACCTAG) | 0.205
CACAGACCTTGGGTTCTAACCTGTTGCCT (site TACAGACCTAG) | 0.251
CACAGATCTTGGGTTCTAACCTGTTGCTT (site CAAAGATCTAA) | 0.14
CACAGATCTTGGGTTCTAACCTGTTGCTT (site CACAGATCTAA) | 0.351
CACAGATCTTGGGTTCTAACCTGTTGCTT (site CAGAGATCTAA) | 0.122
CACAGATCTTGGGTTCTAACCTGTTGCTT (site CATAGATCTAA) | 0.0763
CACAGTACTTGGGTTCTAACCTGTTGCCT (site AACAGTACTAG) | 0.0407
CACAGTACTTGGGTTCTAACCTGTTGCCT (site CACAGTACTAG) | 0.901
CACAGTACTTGGGTTCTAACCTGTTGCCT (site GACAGTACTAG) | 0.29
CACAGTACTTGGGTTCTAACCTGTTGCCT (site TACAGTACTAG) | 0.0394
